Several values for one entry are separate records, joined by “and”; a condition that tells them apart may be missing. Identical values can stand only once. Like-named read-outs stand apart in the source and are kept apart here.
Tests used:
Assay type in all cases: cell-based
human Nav1.5 [1] = biological target: T1, human Nav1.5 (Homo sapiens, UniProt Q14524); experiment: Automated patch-clamp I-V relationship (voltage dependence of activation, Gmax), Nav1.5
Protocol: (§1) The voltage dependence of recombinant Nav channel-mediated currents exposed to PbTx-3 and brevenal was evaluated using current–voltage (I-V) relationships built for Ipeak and Ilate elicited by a standard stimulation protocol (25 ms, −100 to +60 mV, Vh −120 mV, 0.1 Hz).
The effects of extracellular exposure to PbTx-3 (PbTx-3o = 1 μM) and brevenal (Brevenalo = 10 μM) on the activation of Nav channels in neuronal and muscle cells were examined under normal intracellular ionic conditions. […] To investigate the possibility of overlapping binding of these compounds within Nav channels, Nav whole-cell currents were recorded using an intracellular solution supplemented with brevenal (Brevenali = 1 μM). After equilibration, extracellular PbTx-3o (1 μM) was applied and its modulatory effects over the current kinetics and voltage dependence of activation were compared.
(§2) Figure 4 and Figure 5 display representative current traces mediated by human recombinant Nav channels in control and upon exposure to PbTx-3 and brevenal. I-V plots from the normalized peak and late (when present) currents amplitudes (Ipeak/Ipeak^max and Ilate/Ipeak^max) were fitted to a Boltzmann function rendering the half-maximal activation potential (V0.5) and normalized macroscopic conductance (Gmax) parameters (see Section 4). The changes in V0.5 (ΔV0.5 = V0.5^Comp − V0.5^Ctr) and relative Gmax (Gmax^Rel = Gmax^Comp/Gmax^Ctr) observed in the presence of PbTx-3 and brevenal and control conditions were then calculated and compared for all assayed conditions.
(§3) Recording solutions: The extracellular solution contained (in mM) 140 NaCl, 5 KCl, 2 CaCl2, 2 MgCl2, 10 glucose, and 10 HEPES (pH 7.4 with NaOH, 298 ± 3 mOsmol/k g). Control intracellular solution (in mM): 60 CsF, 70 CsCl, 10 EGTA, 10 glucose, and 10 HEPES (pH 7.2 with CsOH, 285 ± 3 mOsmol/kg). Intracellular exposure to brevenal (1 μM) was achieved by including it in the control intracellular solution during chip filling.
(§4) Electrophysiology: Automated patch-clamp (APC) recordings were performed in a PatchLiner Octo (Nanion Technologies GmbH, Munich, Germany) equipped with two EPC-10 quadro patch-clamp amplifiers (HEKA Electronik, Lambrecht/Pfalz, Germany). PatchControl HT (Nanion) was used for cell capture, seal formation, and establishment of the whole-cell configuration, whilst voltage was controlled and currents were sampled with PatchMaster (HEKA Electronics). Recordings were performed under the whole-cell configuration using single-hole planar medium resistance NPC-16 chips (Rchip, resistance of ~2.5 MΩ) at room temperature (22–24 °C).
(§5) Peak I–V curves were fitted using:I(V) = (V − Vrev) × Gmax/(1 + exp ((V0.5 − V)/Vslope) where I is the macroscopic current, V is the command potential, Vrev is the reversal potential (mV), Gmax is the maximal conductance, V0.5 is the half-activation potential (mV), and Vslope is the slope factor (mV/e-fold).

human Nav1.5 [2] = biological target: T1, human Nav1.5; experiment: cell-based; conditions: for EC50: read-out: Nav1.5 Ipeak EC50
Protocol: (§6) Functional modulation of recombinant human voltage-gated sodium (Nav) channels exposed to marine PbTx-3 and brevenal was assessed by automated patch-clamp electrophysiology. Neuronal Nav1.2 (CNS) and Nav1.7 (PNS), in addition to muscle Nav1.4 (skeletal) and Nav1.5 (cardiac) sodium channels, were patch-clamped in mammalian cells. Whole-cell currents mediated by human Nav1.4 and Nav1.7 overexpressed in CHO-K1 cells, as well as human Nav1.2 and Nav1.5 overexpressed in HEK293 cells, were recorded at room temperature. Currents were elicited by 25 ms test pulses to −20 mV from a holding potential (Vh) of −120 mV, delivered for 5 min at 0.1 Hz, after each full-bath solution exchange to allow current amplitude and kinetics to reach a steady state.
(§7) Current traces were scaled to maximal Ipeak and are presented as insets in Figure 2 to underline the effects (or lack thereof) of PbTx-3 and brevenal on the current kinetics of the four Nav isoforms studied. Inactivation time constants (τinact) in control and the presence of PbTx-3 and brevenal were estimated by exponential fits (see Methods) to the current decay between 15% and 85% of the depolarizing pulse. Single exponential fits adequately described τinact for the neuronal and the skeletal muscle Nav isoforms, whereas a double exponential fit was required to approximate open channel inactivation of the cardiac Nav current. Consistent with the enhancement of Ilate observed for Nav1.2, Nav1.4, and Nav1.5 in the presence of PbTx-3, significant concentration-dependent increases in the Yinf asymptote were detected (Tables S1–S3). These were mirrored by brevenal exposure in Nav1.2- and Nav1.4-mediated currents. Nevertheless, the estimated τinacts appeared insensitive to PbTx-3 and brevenal modification, with the notable exception of Nav1.4, for which high concentrations of PbTx-3 and brevenal caused a measurable slowing of the open channel inactivation time constant (Table S2).
as §3
(§8) HEK293 cells heterologously expressing human Nav1.2 (Scottish Biomedical, a kind gift from the Petrous lab, Florey Institute of Neuroscience and Mental Health, Melbourne, VIC Australia) and Nav1.5 (ChanTest Corp., Cleveland, OH, USA) were cultured in DMEM containing 10% v/v FBS and selection antibiotics to enable stable expression as per the manufacturer’s recommendation. CHOK1 expressing Nav1.4 and Nav1.7 (ChanTest) was cultured in DMEM/F12 containing 10% v/v FBS and selection antibiotics supporting stable expression as recommended by the manufacturer. Cells were maintained in a humidified 5% CO2 incubator at 37 °C, grown in T25 flasks to 70–80% confluence, and passaged every 3–4 days using TrypLE Express (Invitrogen). After harvesting with TrypLE, cells were resuspended to 10^5 cells/mL in cold extracellular solution and allowed to recover for 30 min at 4 °C before recording.
as §4
(§9) Cells between passages 6 and 12 were used. […]

human Nav1.4 = human Nav1.4 (Homo sapiens, UniProt P35499); experiment: Automated patch-clamp I-V relationship (voltage dependence of activation, Gmax), Nav1.4
Protocol: as §1
[…] […] To investigate the possibility of overlapping binding of these compounds within Nav channels, Nav whole-cell currents were recorded using an intracellular solution supplemented with brevenal (Brevenali = 1 μM). After equilibration, extracellular PbTx-3o (1 μM) was applied and its modulatory effects over the current kinetics and voltage dependence of activation were compared.
as §2, §3, §4, §5

human Nav1.7 = human Nav1.7 (Homo sapiens, UniProt Q15858); experiment: Automated patch-clamp, concentration-response and inactivation fits, Nav1.7 in CHO-K1
Sequence of human Nav1.7 (Q15858 whole entry): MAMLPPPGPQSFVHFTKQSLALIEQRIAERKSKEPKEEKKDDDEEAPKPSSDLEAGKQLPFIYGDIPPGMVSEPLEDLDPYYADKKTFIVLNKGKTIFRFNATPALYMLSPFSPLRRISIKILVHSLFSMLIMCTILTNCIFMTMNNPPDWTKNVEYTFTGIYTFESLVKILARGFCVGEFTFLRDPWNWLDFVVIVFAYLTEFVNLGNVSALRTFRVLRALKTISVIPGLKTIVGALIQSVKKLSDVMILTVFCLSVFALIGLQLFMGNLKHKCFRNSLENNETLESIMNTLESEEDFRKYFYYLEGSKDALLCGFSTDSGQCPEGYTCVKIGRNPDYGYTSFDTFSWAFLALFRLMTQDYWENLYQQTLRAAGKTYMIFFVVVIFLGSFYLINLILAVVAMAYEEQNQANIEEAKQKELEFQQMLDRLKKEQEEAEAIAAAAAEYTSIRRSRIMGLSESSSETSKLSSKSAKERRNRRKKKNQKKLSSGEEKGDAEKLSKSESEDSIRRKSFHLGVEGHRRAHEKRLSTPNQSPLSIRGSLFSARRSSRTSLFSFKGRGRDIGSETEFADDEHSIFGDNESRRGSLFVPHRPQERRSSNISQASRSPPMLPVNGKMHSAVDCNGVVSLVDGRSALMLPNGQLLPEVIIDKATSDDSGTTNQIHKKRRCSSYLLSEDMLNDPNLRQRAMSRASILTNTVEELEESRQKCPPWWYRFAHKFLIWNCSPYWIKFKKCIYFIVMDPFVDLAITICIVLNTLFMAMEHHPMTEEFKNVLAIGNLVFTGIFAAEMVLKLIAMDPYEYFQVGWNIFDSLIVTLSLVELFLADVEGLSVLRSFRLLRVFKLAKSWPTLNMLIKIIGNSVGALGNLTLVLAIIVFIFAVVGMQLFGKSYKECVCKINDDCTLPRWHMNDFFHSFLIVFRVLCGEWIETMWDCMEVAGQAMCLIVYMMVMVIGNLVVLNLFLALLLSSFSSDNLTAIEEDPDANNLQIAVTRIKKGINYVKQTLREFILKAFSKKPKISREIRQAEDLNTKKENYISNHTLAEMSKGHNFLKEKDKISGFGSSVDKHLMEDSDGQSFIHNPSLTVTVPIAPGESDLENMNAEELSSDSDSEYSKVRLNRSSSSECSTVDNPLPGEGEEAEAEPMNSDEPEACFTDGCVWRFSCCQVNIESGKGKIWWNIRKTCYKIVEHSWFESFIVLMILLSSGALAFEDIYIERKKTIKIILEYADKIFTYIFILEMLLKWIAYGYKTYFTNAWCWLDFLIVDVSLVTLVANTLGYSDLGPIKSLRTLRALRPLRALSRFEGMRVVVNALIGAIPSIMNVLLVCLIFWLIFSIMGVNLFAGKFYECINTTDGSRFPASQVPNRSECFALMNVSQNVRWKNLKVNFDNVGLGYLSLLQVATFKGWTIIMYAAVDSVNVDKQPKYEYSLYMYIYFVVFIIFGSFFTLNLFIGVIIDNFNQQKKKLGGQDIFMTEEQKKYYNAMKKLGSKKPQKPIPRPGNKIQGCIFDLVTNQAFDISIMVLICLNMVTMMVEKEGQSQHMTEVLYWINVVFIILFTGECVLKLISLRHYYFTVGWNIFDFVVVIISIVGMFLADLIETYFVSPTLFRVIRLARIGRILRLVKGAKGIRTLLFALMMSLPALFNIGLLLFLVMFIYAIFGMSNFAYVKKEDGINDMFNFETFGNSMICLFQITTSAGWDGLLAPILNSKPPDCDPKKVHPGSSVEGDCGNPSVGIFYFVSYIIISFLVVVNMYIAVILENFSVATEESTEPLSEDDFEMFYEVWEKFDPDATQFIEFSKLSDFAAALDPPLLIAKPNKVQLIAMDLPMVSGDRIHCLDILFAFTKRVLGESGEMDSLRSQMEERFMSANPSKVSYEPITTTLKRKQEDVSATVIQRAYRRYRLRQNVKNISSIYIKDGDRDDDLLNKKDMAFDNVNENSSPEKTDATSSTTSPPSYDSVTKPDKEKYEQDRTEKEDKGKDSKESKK
Protocol: as §6, §7, §3, §8, §4, §9

T1 sequence (Q14524 whole entry): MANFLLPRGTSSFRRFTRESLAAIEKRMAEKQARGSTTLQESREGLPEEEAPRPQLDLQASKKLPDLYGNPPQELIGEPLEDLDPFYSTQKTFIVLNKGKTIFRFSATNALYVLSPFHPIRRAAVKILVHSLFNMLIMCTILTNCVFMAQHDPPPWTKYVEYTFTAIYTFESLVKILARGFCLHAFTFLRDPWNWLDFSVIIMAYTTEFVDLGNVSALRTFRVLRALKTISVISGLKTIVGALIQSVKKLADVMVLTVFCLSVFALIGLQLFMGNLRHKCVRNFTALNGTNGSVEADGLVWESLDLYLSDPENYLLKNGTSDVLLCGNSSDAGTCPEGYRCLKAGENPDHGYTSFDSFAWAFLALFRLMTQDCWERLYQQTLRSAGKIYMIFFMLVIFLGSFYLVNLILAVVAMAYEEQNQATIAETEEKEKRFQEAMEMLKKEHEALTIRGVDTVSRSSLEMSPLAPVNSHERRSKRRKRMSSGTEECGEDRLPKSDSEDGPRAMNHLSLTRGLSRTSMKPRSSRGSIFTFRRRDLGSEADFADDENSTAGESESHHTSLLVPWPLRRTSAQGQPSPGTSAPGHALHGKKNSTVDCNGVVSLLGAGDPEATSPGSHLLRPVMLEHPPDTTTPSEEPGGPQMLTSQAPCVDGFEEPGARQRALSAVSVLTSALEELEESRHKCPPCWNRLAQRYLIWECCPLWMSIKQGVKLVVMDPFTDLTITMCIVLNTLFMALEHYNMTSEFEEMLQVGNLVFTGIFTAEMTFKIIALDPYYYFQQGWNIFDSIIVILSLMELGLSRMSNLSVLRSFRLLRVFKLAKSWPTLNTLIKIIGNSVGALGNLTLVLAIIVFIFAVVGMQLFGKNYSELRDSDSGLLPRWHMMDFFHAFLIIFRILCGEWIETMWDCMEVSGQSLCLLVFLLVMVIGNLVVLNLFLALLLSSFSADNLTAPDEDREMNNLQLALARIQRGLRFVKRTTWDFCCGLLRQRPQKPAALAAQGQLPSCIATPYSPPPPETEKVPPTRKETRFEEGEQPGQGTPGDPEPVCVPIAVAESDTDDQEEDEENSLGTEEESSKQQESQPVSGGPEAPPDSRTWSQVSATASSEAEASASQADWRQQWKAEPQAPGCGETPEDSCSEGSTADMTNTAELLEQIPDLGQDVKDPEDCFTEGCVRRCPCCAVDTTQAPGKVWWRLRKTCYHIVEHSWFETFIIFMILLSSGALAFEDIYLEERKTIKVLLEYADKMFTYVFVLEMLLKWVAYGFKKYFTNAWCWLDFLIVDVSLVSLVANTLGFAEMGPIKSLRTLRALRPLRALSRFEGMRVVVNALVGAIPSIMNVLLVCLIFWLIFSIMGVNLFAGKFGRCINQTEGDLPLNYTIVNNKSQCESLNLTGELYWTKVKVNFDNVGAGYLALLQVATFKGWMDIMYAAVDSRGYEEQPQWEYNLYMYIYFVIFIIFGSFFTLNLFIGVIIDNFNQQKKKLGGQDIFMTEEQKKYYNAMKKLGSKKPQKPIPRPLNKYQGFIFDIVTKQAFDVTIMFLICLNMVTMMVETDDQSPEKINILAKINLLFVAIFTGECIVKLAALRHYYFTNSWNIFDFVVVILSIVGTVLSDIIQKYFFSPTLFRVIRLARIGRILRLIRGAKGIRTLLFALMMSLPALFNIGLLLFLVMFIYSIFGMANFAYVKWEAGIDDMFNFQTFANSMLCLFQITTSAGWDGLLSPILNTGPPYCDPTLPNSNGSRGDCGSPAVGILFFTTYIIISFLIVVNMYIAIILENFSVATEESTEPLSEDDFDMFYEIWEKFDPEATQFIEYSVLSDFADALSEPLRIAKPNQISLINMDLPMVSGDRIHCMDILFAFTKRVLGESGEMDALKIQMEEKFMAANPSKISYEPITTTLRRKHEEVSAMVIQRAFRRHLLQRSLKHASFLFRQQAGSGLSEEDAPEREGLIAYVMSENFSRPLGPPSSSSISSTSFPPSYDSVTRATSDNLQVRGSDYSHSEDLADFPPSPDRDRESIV

## C=C/C=C\CC[C@H]1O[C@H]2CC[C@@]3(C)O[C@H]4[C@@H](O)C[C@@]5(C)O[C@@H](CC/C=C(C)/C(C)=C/C=O)[C@@H](C)C[C@H]5O[C@@H]4C[C@@H]3O[C@@H]2CC[C@@]1(C)O [Brevenal]
Human Nav1.5 [1]; Brevenalo 10 μM, n = 7
  ΔV0.5 of Nav1.5 activation: 0.1 ± 1.4 mV
Human Nav1.5 [1]; brevenal 10 μM extracellular, n = 7
  relative Gmax of Nav1.5: 0.3 ± 0.1
Human Nav1.5 [2]; 10^-5 M, n = 4
  Nav1.5 A1Rel: 0.77±0.05
  Nav1.5 τ 1inact: 0.44 ± 0.01 ms
  Nav1.5 τ 2inact: 1.79 ± 0.06 ms
Human Nav1.5 [2]; 10^-6 M, n = 4
  Nav1.5 A1Rel: 0.77±0.07
  Nav1.5 τ 1inact: 0.46 ± 0.01 ms
  Nav1.5 τ 2inact: 2.05 ± 0.21 ms
Human Nav1.5 [2]; 10^-9 M, n = 4
  Nav1.5 A1Rel: 0.73±0.07
  Nav1.5 τ 1inact: 0.45 ± 0.01 ms
  Nav1.5 τ 2inact: 1.77 ± 0.34 ms
Human Nav1.5 [2]; inhibition of peak current, −20 mV, Vh −120 mV, n = 5
  EC50: 17 nM
Human Nav1.5 [2]; not significant vs control, −20 mV, Vh −120 mV, n = 5
  Nav1.5 Ilate FC^Max (maximal fold change): 1.3 ± 0.2
Human Nav1.5 [2]; test pulse −20 mV, Vh −120 mV, extracellular, n = 5
  Nav1.5 Ipeak FC^Max (maximal fold change): 0.4 ± 0.1
Human Nav1.4; Brevenalo 1 μM
  inhibition of Nav1.4 Gmax: ~ 70%
Human Nav1.4; Brevenalo 1 μM, n = 7
  Gmax^Rel of Nav1.4: 0.3 ± 0.02
  depolarizing shift in V0.5 of Nav1.4: 4.9 ± 1.1 mV
Human Nav1.4; Ctro:Brevenali, n = 4, control −31.8 ± 0.5 mV
  Nav1.4 V0.5: −26.4 ± 2.8 mV
Human Nav1.4; brevenal 1 μM in the intracellular solution
  right shift of Nav1.4 activation vs control intracellular: ~ 5 mV
Human Nav1.7; 10^-5 M, n = 4
  Nav1.7 yinf: 0.07±0.01
  Nav1.7 τ inact: 0.93 ± 0.09 ms
Human Nav1.7; 10^-6 M, n = 4
  Nav1.7 yinf: 0.07±0.01
  Nav1.7 τ inact: 0.85 ± 0.06 ms
Human Nav1.7; 10^-9 M, n = 4
  Nav1.7 yinf: 0.07±0.01
  Nav1.7 τ inact: 0.76 ± 0.05 ms
Human Nav1.7; up to 30 μM
  modulation of Nav1.7 currents: did not modulate

## C=C(CO)C[C@@H]1C[C@H](O)[C@]2(C)OC3CC4OC5C[C@]6(C)O[C@]7(C)CCC8OC9C[C@]%10(C)OC%11C(C)=CC(=O)OC%11CC%10OC9C[C@@H](C)C8OC7CC6O[C@@]5(C)C/C=C\C4OC3CC2O1 (stereo partly drawn) [PbTx-3, Brevetoxin PbTx-3]
Human Nav1.5 [1]
  Gmax^Rel of Nav1.5: 1.2 ± 0.1
  depolarizing shift in V0.5 of Nav1.5: 8.7 ± 1.2 mV
  depolarizing shift ΔV0.5 of Nav1.5: 10.8 ± 2.0 mV
  relative Gmax of Nav1.5: 0.4 ± 0.04
Human Nav1.5 [2]
  Nav1.5 A1Rel: 0.82±0.05 and 0.72±0.01 and 0.71±0.06
  Nav1.5 A2Rel: 0.18±0.05 and 0.28±0.01 and 0.29±0.06
  Nav1.5 Ilate FC^Max (maximal fold change): 1.8 ± 0.1
  Nav1.5 Ipeak FC^Max (maximal fold change): 0.2 ± 0.1
  Nav1.5 τ 1inact: 0.46 ± 0.03 ms and 0.48 ± 0.06 ms and 0.45 ± 0.02 ms
  Nav1.5 τ 2inact: 2.42 ± 0.52 ms and 2.67 ± 0.78 ms and 1.48 ± 0.31 ms
  EC50: 2.2 nM
Human Nav1.4
  Gmax^Rel of Nav1.4: 0.3 ± 0.05 and 0.4 ± 0.1
  hyperpolarizing shift in V0.5 of Nav1.4: 9.2 ± 1.5 mV
  inhibition of Nav1.4 Gmax: ~ 70%
  inhibition of Nav1.4 Ipeak: completely inhibited
  ΔV0.5 of Nav1.4 activation: 3.1 ± 2.6 mV
Human Nav1.7
  Nav1.7 Ilate FC^Max (maximal fold change): 0.6 ± 0.1
  Nav1.7 Ipeak FC^Max (maximal fold change): 0.4 ± 0.1
  Nav1.7 yinf: 0.04±0.01
  Nav1.7 τ inact: 0.60 ± 0.05 ms and 0.63 ± 0.04 ms and 0.66 ± 0.11 ms
Human Nav1.7; read-out: IC50, inhibition of Nav1.7 Ilate
  IC50: 34 nM
Human Nav1.7; read-out: Nav1.7 Ipeak EC50
  EC50: 0.16 nM

Reference: article PMC10382042, “Brevetoxin versus Brevenal Modulation of Human Nav1 Channels” (Marine Drugs, 2023)
